Drawing on US8962608B2, “Cycloalkylnitrile pyrazole carboxamides as janus kinase inhibitors” (Merck Sharp & Dohme Corp., priority 2011, dated 2015), this text covers IC50 for 28 compounds.

Sequence of JAK1 (recombinant purified GST-tagged catalytic domain) (P23458 875-1153): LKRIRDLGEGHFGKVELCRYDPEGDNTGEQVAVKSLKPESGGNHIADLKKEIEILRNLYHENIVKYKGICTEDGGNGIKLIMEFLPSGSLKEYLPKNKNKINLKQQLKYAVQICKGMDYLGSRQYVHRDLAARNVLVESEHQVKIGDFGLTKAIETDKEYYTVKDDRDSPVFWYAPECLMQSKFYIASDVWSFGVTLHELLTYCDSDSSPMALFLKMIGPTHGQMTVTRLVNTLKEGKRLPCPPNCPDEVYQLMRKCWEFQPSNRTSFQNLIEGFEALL

The target in one experiment is JAK2 (recombinant purified GST-tagged catalytic domain) (Homo sapiens (Human), UniProt O60674). As to the kind of experiment: biochemical.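 Also: biochemical JAK kinase assay with HTRF detection.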
Sequence of JAK2 (recombinant purified GST-tagged catalytic domain) (O60674 849-1124): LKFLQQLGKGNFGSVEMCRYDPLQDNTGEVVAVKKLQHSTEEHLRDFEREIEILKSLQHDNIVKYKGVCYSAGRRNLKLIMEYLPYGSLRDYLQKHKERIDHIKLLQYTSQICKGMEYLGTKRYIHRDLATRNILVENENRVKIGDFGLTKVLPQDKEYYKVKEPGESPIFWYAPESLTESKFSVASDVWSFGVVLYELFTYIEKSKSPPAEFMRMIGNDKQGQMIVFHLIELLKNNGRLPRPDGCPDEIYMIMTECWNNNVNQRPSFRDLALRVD
In general, IC50 refers to the concentration that inhibits the measured activity by half. As to `N#C[C@@H]1CCCCC1n1cc(C(N)=O)c(Nc2ccccc2)n1` (mixture of isomers) [Example 1-3, 1-[(1S,2R and 1R,2S)-2-cyanocyclohexyl]-3-(phenylamino)-1H-pyrazole-4-carboxamide], the IC50 came to 138 nM.
Turning to `N#C[C@H]1CCCC[C@@H]1n1cc(C(N)=O)c(Nc2ccccc2)n1` (racemic) [Example 2-1, 1-((1S,2S and 1R,2R)-2-cyanocyclohexyl)-3-(phenylamino)-1H-pyrazole-4-carboxamide], the half-inhibitory concentration (IC50) was found to be 36 nM.
Still for that read-out and setting: in the case of `CS(=O)(=O)c1ccc(Nc2nn(C3CCCC[C@H]3C#N)cc2C(N)=O)cc1` (mixture of isomers) [Example 2-14, 1-[(1S,2R and 1R,2S)-2-cyanocyclohexyl]-3-{[4-(methylsulfonyl)phenyl]amino}-1H-pyrazole-4-carboxamide] it was 18 nM; in that of `CC(C)(C)OC(=O)NC1CC[C@H](C#N)C(n2cc(C(N)=O)c(Nc3ccc(F)cc3)n2)C1` (mixture of isomers) [Example 11-3, tert-butyl [(1R,3S,4S and 1S,3R,4R) or (1S,3S,4S and 1R,3R,4R)-3-{4-carbamoyl-3-[(4-fluorophenyl)amino]-1H-pyrazol-1-yl}-4-cyanocyclohexyl]carbamate], 49 nM.
Turning to `CC(C)(C)OC(=O)NC1CC[C@@H](C#N)C(n2cc(C(N)=O)c(Nc3ccc(F)cc3)n2)C1` (mixture of isomers) [Example 11-4, tert-butyl [(3R,4S and 3S,4R)-3-{4-carbamoyl-3-[(4-fluorophenyl)amino]-1H-pyrazol-1-yl}-4-cyanocyclohexyl]carbamate], the concentration for half-maximal inhibition (IC50) is 20 nM.
Consider `CC(C)(C)OC(=O)NC1CC[C@H](C#N)C(n2cc(C(N)=O)c(Nc3ccc(F)cc3)n2)C1` (mixture of isomers) [Example 11-5, tert-butyl [(1R,3S,4S and 1S,3R,4R) or (1S,3S,4S and 1R,3R,4R)-3-{4-carbamoyl-3-[(4-fluorophenyl)amino]-1H-pyrazol-1-yl}-4-cyanocyclohexyl]carbamate], for which the half-inhibitory concentration (IC50) worked out at 22 nM.
For the compound `CS(=O)(=O)c1ccc(Nc2nn(C3CCCC[C@@H]3C#N)cc2C(N)=O)cc1F` (mixture of isomers) [Example 17-8, 1-[(1S,2S and 1R,2R)-2-cyanocyclohexyl]-3-{[3-fluoro-4-(methylsulfonyl)phenyl]amino}-1H-pyrazole-4-carboxamide], the IC50 worked out at 10 nM.
`N#C[C@H]1CCCCC1n1cc(C(N)=O)c(Nc2ccc(S(=O)(=O)C(F)F)cc2)n1` (mixture of isomers) [Example 17-9, 1-[(1S,2S and 1R,2R)-2-cyanocyclohexyl]-3-({4-[(difluoromethyl)sulfonyl]phenyl}amino)-1H-pyrazole-4-carboxamide]: the half-maximal inhibitory concentration (IC50) is 5 nM.
In the case of `CCS(=O)(=O)c1ccc(Nc2nn(C3CCCC[C@@H]3C#N)cc2C(N)=O)cc1` (mixture of isomers) [Example 17-10, 1-[(1S,2S and 1R,2R)-2-cyanocyclohexyl]-3-{[4-(ethylsulfonyl)phenyl]amino}-1H-pyrazole-4-carboxamide], the concentration for half-maximal inhibition (IC50) amounted to 4 nM.
Still for that read-out and setting: in the case of `N#C[C@H]1CCCC[C@@H]1n1cc(C(N)=O)c(Nc2cccnc2)n1` (racemic) [Example 17-13, 1-[(1S,2S and 1R,2R)-2-cyanocyclohexyl]-3-(pyridin-3-ylamino)-1H-pyrazole-4-carboxamide] it was 36 nM; in that of `N#C[C@H]1CCCC[C@@H]1n1cc(C(N)=O)c(Nc2ccc(Cl)c(F)c2)n1` (racemic) [Example 17-56, 3-[(4-chloro-3-fluorophenyl)amino]-1-[(1S,2S and 1R,2R)-2-cyanocyclohexyl]-1H-pyrazole-4-carboxamide], 37 nM.
Take `N#C[C@H]1CCCC[C@@H]1n1cc(C(N)=O)c(Nc2ccc(F)c(Cl)c2)n1` (racemic) [Example 17-58, 3-[(3-chloro-4-fluorophenyl)amino]-1-[(1S,2S and 1R,2R)-2-cyanocyclohexyl]-1H-pyrazole-4-carboxamide]: the IC50 worked out at 42 nM.
For `N#C[C@H]1CCCC[C@@H]1n1cc(C(N)=O)c(Nc2ccc(OC(F)F)nc2)n1` (racemic) [Example 17-102, 1-[(1S,2S and 1R,2R)-2-cyanocyclohexyl]-3-{[6-(difluoromethoxy)pyridin-3-yl]amino}-1H-pyrazole-4-carboxamide], the IC50 was determined as 39 nM.
Regarding `CCNC1CCC(n2cc(C(N)=O)c(Nc3ccc(S(=O)(=O)C(F)(F)F)cc3)n2)[C@@H](C#N)C1` (mixture of isomers) [Example 27-5, 1-[(1S,2S and 1R,2R)-2-cyano-4-(ethylamino)cyclohexyl]-3-({4-[(trifluoromethyl)sulfonyl]phenyl}amino)-1H-pyrazole-4-carboxamide], the IC50 is 11 nM.
Same read-out and setting: in the case of `N#C[C@H]1CC(NC2CC2)CCC1n1cc(C(N)=O)c(Nc2ccc(S(=O)(=O)C(F)(F)F)cc2)n1` (mixture of isomers) [Example 27-10, 1-[(1S,2S and 1R,2R)-2-cyano-4-(cyclopropylamino)cyclohexyl]-3-({4-[(trifluoromethyl)sulfonyl]phenyl}amino)-1H-pyrazole-4-carboxamide] it was 7 nM.
Still for that read-out and setting: with `N#C[C@H]1C[C@@H](NCC(F)(F)F)CCC1n1cc(C(N)=O)c(Nc2ccc(S(=O)(=O)C(F)(F)F)cc2)n1` (mixture of isomers) [Example 27-11, 1-{(1S,2S,4S and 1R,2R,4R)-2-cyano-4-[(2,2,2-trifluoroethyl)amino]cyclohexyl}-3-({4-[(trifluoromethyl)sulfonyl]phenyl}amino)-1H-pyrazole-4-carboxamide] the figure was 6 nM; with `N#C[C@H]1C[C@@H](NCC(F)F)CCC1n1cc(C(N)=O)c(Nc2ccc(S(=O)(=O)C(F)(F)F)cc2)n1` (mixture of isomers) [Example 27-14, 1-{(1S,2S,4S and 1R,2R,4R)-2-cyano-4-[(2,2-difluoroethyl)amino]cyclohexyl}-3-({4-[(trifluoromethyl)sulfonyl]phenyl)amino)-1H-pyrazole-4-carboxamide], 11 nM.
Consider `N#C[C@H]1C[C@@H](OC(=O)Nc2ccccc2)CCC1n1cc(C(N)=O)c(Nc2ccc(F)cc2)n1` (mixture of isomers) [Example 34-1, (1S,3S,4S and 1R,3R,4R)-4-{4-Carbamoyl-3-[(4-fluorophenyl)amino]-1H-pyrazol-1-yl}-3-cyanocyclohexyl phenylcarbamate], for which the IC50 was 107 nM.
Still for that read-out and setting: in the case of `N#C[C@H]1C[C@H](OC(=O)Nc2ccccc2)CCC1n1cc(C(N)=O)c(Nc2ccc(F)cc2)n1` (mixture of isomers) [Example 34-3, (1R,3S,4S and 1S,3R,4R)-4-{4-carbamoyl-3-[(4-fluorophonyl)aminol-1H-pyrazol-1-yl}-3-cyanocyclohexyl phenylcarbamate] it was 13 nM; in that of `N#C[C@H]1CCCC[C@@H]1n1cc(C(N)=O)c(Nc2ccc(C=O)cc2)n1` (single isomer, unassigned) [Example 17-25, 1-[(1S,2S or 1R,2R)-2-cyanocyclohexyl]-3-[(4-formylphenyl)amino]-1H-pyrazole-4-carboxamide], 3 nM.
The same measure, in the same setting: in the case of `CC(C)(c1ccc(Nc2nn([C@H]3CCCC[C@@H]3C#N)cc2C(N)=O)cc1F)[C@H](O)C(F)(F)F` (single isomer, unassigned) [Example 17-32, 1-[(1S,2S or 1R,2R)-2-cyanocyclohexyl]-3-({3-fluoro-4-[(2S or 2R)-3,3,3-trifluoro-2-hydroxy-1,1-dimethylpropyl]phenyl}amino)-1H-pyrazole-4-carboxamide] it was 11 nM.

The next experiment addresses JAK1 (recombinant purified GST-tagged catalytic domain) (Homo sapiens (Human), UniProt P23458). Kind of experiment: biochemical.
Take `N#C[C@@H]1C[C@H](C(=O)N2CCC(F)(F)C2)CC[C@H]1n1cc(C(N)=O)c(Nc2ccc(Cl)cc2)n1` (single isomer, unassigned) [Example 35-32, 3-[(4-chlorophenyl)amino]-1-{(1R,2R,4R or 1S,2S,4S)-2-cyano-4-[(3,3-difluoropyrrolidin-1-yl)carbonyl]cyclohexyl}-1H-pyrazole-4-carboxamide]: the IC50 came out at 5 nM.
Same read-out and setting: with `N#C[C@@H]1C[C@H](C(=O)N2CC(F)C2)CC[C@H]1n1cc(C(N)=O)c(Nc2ccc(Cl)cc2)n1` (single isomer, unassigned) [Example 35-33, 3-[(4-chlorophenyl)amino]-1-{(1R,2R,4R or 1S,2S,4S)-2-cyano-4-[(3-fluoroazetidin-1-yl)carbonyl]cyclohexyl}-1H-pyrazole-4-carboxamide] the figure was 9 nM; with `N#C[C@H]1C[C@@H](C(=O)N2CC(F)C2)CC[C@@H]1n1cc(C(N)=O)c(Nc2ccc(Cl)cc2)n1` (single isomer, unassigned) [Example 35-34, 3-[(4-chlorophenyl)amino]-1-{(1S,2S,4S or 1R,2R,4R)-2-cyano-4-[(3-fluoroazetidin-1-yl)carbonyl]cyclohexyl}-1H-pyrazole-4-carboxamide], 3 nM; with `CO/N=C/c1ccc(Nc2nn([C@H]3CCCC[C@@H]3C#N)cc2C(N)=O)cc1` (single isomer, unassigned) [Example 39, 1-[(1S,2S or 1R, 2R)-2-Cyanocyclohexyl]-3-({4-[(methoxyimino)methyl]phenyl}amino)-1H-pyrazole-4-carboxamide], 0.45 nM.
The same measure, in the same setting: in the case of `N#C[C@@H]1CCCCC1n1cc(C(N)=O)c(Nc2ccc(S(=O)(=O)CC(F)(F)F)cc2)n1` (single isomer, unassigned) [Example 43-7, 1-[(1S,2S or 1R,2R)-2-cyanocyclohexyl]-3-({4-[(2,2,2-trifluoroethyl)sulfonyl]phenyl}amino)-1H-pyrazole-4-carboxamide] it was 2 nM; in that of `N#C[C@@H]1CCCCC1n1cc(C(N)=O)c(Nc2ccc(S(=O)(=O)CC(F)(F)F)cc2)n1` (single isomer, unassigned) [Example 43-8, 1-[(1S,2S or 1R,2R)-2-cyanocyclohexyl]-3-({4-[(2,2,2-trifluoroethyl)sulfonyl]phenyl}amino)-1H-pyrazole-4-carboxamide], 0.15 nM.
The same measure, in the same setting: with `N#C[C@@H]1CCCC[C@H]1n1cc(C(N)=O)c(Nc2ccc3c(c2)CCS3(=O)=O)n1` (single isomer, unassigned) [Example 45-6, 1-[(1S,2R or 1R,2S)-2-cyanocyclohexyl)-3-[(1,1-dioxido-2,3-dihydro-1-benzothiophen-5-yl)amino]-1H-pyrazole-4-carboxamide] the figure was 2 nM.
